Source: patent US20090123565A9, “Copper-dependent non-traditional pro-inflammatory cytokine export and methods, compositions and kits relating thereto” (Maine Medical Center Research Institute, priority 2001, published 2009)

Assays:
serum ceruloplasmin = assay: Serum ceruloplasmin (surrogate marker of free copper) in rats; assay type: in vivo, Sprague-Dawley rats; settings: daily 10 mg/kg TTM within 4 weeks
Description: Copper status in mammals treated with TTM cannot be reliably followed by measuring total serum copper level because the chelated copper will still be detected. Serum ceruloplasmin, whose synthesis is directly regulated by the bio-availability of copper to the liver, is a more accurate indicator of free copper and is used as a surrogate marker of free copper status Schosinksy et al., 1974, Clin. Chem. 20:1556-1563. Serum ceruloplasmin was assessed as baseline level before the TTM-treatment, as well as on the day of the injury and on the final day. Blood (0.5 to 1 ml) was obtained from the tail vein after anesthesia was centrifuged for 10 minutes at 2000×G and the serum was frozen at −20° C. until assay. Ceruloplasmin oxidative activity was measured as described previously (Schosinsky et al., 1974, Clin. Chem. 20:1556-1563).

ceruloplasmin = settings: cited from earlier work

[NH4+].[NH4+].[SH-].[SH-].[S]=[Mo]=[S] [TTM, ammonium tetrathiomolybdate]
ceruloplasmin reduction to (serum ceruloplasmin): 0-20 % of its baseline level
time to induce copper deficiency (ceruloplasmin; humans, safely): 2-4 weeks
ceruloplasmin reduction to (ceruloplasmin; patients with cancer, withstood for months and years (Brewer et al., 2000)): 20 % of baseline
